Experiments:
[1] = target: T1, CDK1/cyclinB (Homo sapiens, UniProt P06493); assay: CDK activity assay with p33 ATP, CDK1/cyclinB; assay type: biochemical; conditions: 1 μM ATP
T1 construct: C-terminal 6His-tagged human full length cdk1 (MW=35 kDa); 6His (C); made in house; host or cells: Sf21 insect cells (baculovirus)
Excerpt: CDK1/cyclinB (Accession Number for CDK1; GenBankNM_001786, for cyclinB; EMBL M25753):
C-terminal 6His-tagged human full length cdk1 (MW=35 kDa), and N-terminal GST-tagged human full length cyclin B (MW=75 kDa) were expressed individually with baculovirus system in Sf21 insect cells. Recombinant proteins were purified using Ni2+/NTA-agarose and GST-agarose, respectively. The cdk1 was then activated using CAK and repurified by Q Sepharose and Ni2+/NTA-agarose. They were then mixed in vitro to form protein complex. The purity of these protein complex was estimated to be 80.5% by SDSPAGE and Coomassie blue staining. Specific Activity of recombinant enzyme was measyre to be 1329 U/mg, where one unit of cdk1/cyclinB activity is defined as 1 nmol phosphate incorporated into 0.1 mg/ml histone H1 per minute at 30° C. with a final ATP concentration of […]. Enzyme was stored at concentration of 0.1 mg/ml in 50 mM Tris/HCl pH7.5, 150 mM NaCl, 0.1 mM EGTA, 0.03% Brij-35, 270 mM sucrose, 1 mM benzamidine, 0.2 mM PMSF, 0.1% 2-mercaptoethanol.

[2] = test system: HDAC; assay: HDAC fluorimetric assay kit (AK-500, Biomol), HeLa nuclear extract; assay type: biochemical
Method: HDAC inhibitors were screened using an HDAC fluorimetric assay kit (AK-500, Biomol, Plymouth Meeting, Pa.). […] Each assay was setup as follows: Defrosted all kit components and kept on ice until use. Diluted HeLa nuclear extract 1:29 in Assay Buffer (50 mM Tris/Cl, pH 8.0, 137 mM NaCl, 2.7 mM KCl, 1 mM MgCl2). Prepared dilutions of Trichostatin A (TSA, positive control) and tested compounds in assay buffer (5× of final concentration). Diluted Fluor de LysTM Substrate in assay buffer to 100 uM (50 fold=2× final). Diluted Fluor de LysTM developer concentrate 20-fold (e.g. 50 μl plus 950 μl Assay Buffer) in cold assay buffer. Second, diluted the 0.2 mM Trichostatin A 100-fold in the 1× Developer (e.g. 10 μl in 1 ml; final Trichostatin A concentration in the 1× Developer=2 μM; final concentration after addition to HDAC/Substrate reaction=1 μM). Added Assay buffer, diluted trichostatin A or test inhibitor to appropriate wells of the microtiter plate. Added diluted HeLa extract or other HDAC sample to all wells except for negative controls. Allowed diluted Fluor de LysTM Substrate and the samples in the microtiter plate to equilibrate to assay temperature (e.g. 25 or 37° C. Initiated HDAC reactions by adding diluted substrate (25 μl) to each well and mixing thoroughly. Allowed HDAC reactions to proceed for 1 hour and then stopped them by addition of Fluor de LysTM Developer (50 μl). Incubated plate at room temperature (25° C.) for 10-15 min. Read samples in a microtiter-plate reading fluorimeter capable of excitation at a wavelength in the range 350-380 nm and detection of emitted light in the range 440-460 nm.

[3] = target: T2, CDK4/cyclinD1 (Homo sapiens, UniProt P11802); assay: CDK activity assay with p33 ATP, CDK4/cyclinD1; assay type: biochemical; conditions: 1 μM ATP
T2 construct: Recombinant Human Full-length GST-tagged CDK-4 (MW=61.8 kDa) and cyclinD1 (MW=61.2 kDa); GST; made in house; host or cells: insect cells
Method: Recombinant Human Full-length GST-tagged CDK-4 (MW=61.8 kDa) and cyclinD1 (MW=61.2 kDa) were expressed in insect cells. […] Activity was determined at a final protein concentration at 8.33 μg/mL.
RBC-CTF (Substrate for CDK4):
Human RB protein (S773-K928, MW=44.46 kDa), N-terminal GST-tagged was purified and followed with a factor Xa cleavage, which was performed in 4 mM concentration of glutathione, Purified protein was stocked at a concentration of 0.67 mg/ml.
2 nM CDK4/cyclinD1 and 1 μM RB-CTF were mixed in the reaction buffer with final concentration of 1 μM ATP and 1% DMSO.

[4] = target: CDK7/cyclinH1/MNAT1 (Homo sapiens, UniProt P50613); assay: CDK activity assay with p33 ATP, CDK7/cyclinH1/MNAT1
Method: Recombinant Human Full-Length protein, Histidine-tagged CDK7 (MW=43.2 kDa), Histidine-tagged cyclin H1 (MW=42.6 kDa), Histidine-tagged MNAT1 (MW=40.5 kDa), were expressed in insect cells.
For CDK activity assay, p33 ATP tracers were incubated with purified recombinant specific combination of purified CDK kinases, cyclins and substrates to monitor the enzyme activity. In these assays, individual reactions were carried out in specific conditions describe below with reaction buffer: 20 mM HEPES (pH 7.5), 10 mM MgCl2, 1 mM EGTA, 0.02% Brij 35, 0.02 mg/ml BSA, 0.1 mM Na3VO4, 2 mM DTT. […] Precipitated proteins were trapped onto glass fiber B filterplates and excess unlabeled p33 ATP was washed off. The plates were allowed to air-dry prior to the addition of 30 uL/well of Packard Microscint 20. The amount of incorporated isotope was measured using a Perkin Elmer TopCount plate reader. […] IC50 was calculated using Prism software with sigmoidal dose-response curve fitting.
100 nM CDK7/cyclinH1/MNAT1 and 20 μM Histon H1 were mixed in the reaction buffer with 1 μM ATP and 1% DMSO.

[5] = target: T3, CDK2/cyclinE (Homo sapiens, UniProt P24941); assay: CDK activity assay with p33 ATP, CDK2/cyclinE; assay type: biochemical; conditions: 1 μM ATP
T3 construct: C-terminal 6His-tagged, recombinant full-length CDK2 (MW=34 kDa); 6His (C); made in house; host or cells: Sf21 cells (baculovirus)
Method: CDK2/cyclinE (Accession Number for CDK2; EMBL M68520, for cyclinE1; GenBank NM_001238):
C-terminal 6His-tagged, recombinant full-length CDK2 (MW=34 kDa) in complex with N-terminal GST-tagged, recombinant full-length cyclinE1 (MW=74 kDa) were expressed with baculovirus system in Sf21 cells. Recombinant proteins were purified using Ni2+/NTA agarose and the purity of recombinant protein complex was measured to be around 76% by SDS-PAGE and Coomassie blue staining. Specific Activity of recombinant CDK2/cyclinE was 1336 U/mg, where one unit of CDK2/cylinE1 activity is defined as 1 nmol phosphate incorporated into 0.1 mg/ml histone H1 per minute at 30° C. with a final ATP concentration of 100 μM. Enzyme was stored with concentration of 0.1 mg/ml in 50 mM Tris/HCl pH 7.5, 150 mM NaCl, 0.03% Brij-35, 0.1 mM EGTA, 0.2 mM PMSF, 1 mM benzamidine, 0.1% 2-mercaptoethanol, 270 mM sucrose.

T1 sequence (P06493 whole entry): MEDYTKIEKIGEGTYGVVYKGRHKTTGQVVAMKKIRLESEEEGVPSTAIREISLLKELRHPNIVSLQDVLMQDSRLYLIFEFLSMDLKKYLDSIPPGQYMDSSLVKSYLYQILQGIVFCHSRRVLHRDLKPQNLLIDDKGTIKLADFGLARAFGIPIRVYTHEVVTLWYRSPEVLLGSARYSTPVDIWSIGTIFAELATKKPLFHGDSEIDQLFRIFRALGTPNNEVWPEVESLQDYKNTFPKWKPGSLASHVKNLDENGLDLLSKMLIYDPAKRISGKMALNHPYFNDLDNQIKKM
T1 sequence (P14635 whole entry partner): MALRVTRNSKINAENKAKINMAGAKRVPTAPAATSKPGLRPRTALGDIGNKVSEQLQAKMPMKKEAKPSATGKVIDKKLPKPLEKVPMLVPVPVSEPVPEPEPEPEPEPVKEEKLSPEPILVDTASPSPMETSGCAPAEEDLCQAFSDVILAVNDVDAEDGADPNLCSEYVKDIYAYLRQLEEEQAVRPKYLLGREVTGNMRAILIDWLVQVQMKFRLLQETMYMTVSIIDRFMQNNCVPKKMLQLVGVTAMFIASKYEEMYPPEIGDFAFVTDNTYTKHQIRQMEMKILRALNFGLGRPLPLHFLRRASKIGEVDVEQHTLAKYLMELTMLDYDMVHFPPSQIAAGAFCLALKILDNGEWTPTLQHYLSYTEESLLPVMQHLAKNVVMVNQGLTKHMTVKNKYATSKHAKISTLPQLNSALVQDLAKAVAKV
T2 sequence (P11802 whole entry): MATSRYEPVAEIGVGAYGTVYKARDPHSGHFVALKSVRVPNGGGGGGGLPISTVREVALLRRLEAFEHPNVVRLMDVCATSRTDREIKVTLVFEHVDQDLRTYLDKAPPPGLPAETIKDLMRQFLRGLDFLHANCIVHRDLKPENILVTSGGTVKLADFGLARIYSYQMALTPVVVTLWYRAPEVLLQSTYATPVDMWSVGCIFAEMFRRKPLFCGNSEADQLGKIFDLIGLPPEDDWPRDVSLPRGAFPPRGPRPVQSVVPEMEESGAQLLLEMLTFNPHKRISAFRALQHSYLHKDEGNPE
T2 sequence (P24385 whole entry partner): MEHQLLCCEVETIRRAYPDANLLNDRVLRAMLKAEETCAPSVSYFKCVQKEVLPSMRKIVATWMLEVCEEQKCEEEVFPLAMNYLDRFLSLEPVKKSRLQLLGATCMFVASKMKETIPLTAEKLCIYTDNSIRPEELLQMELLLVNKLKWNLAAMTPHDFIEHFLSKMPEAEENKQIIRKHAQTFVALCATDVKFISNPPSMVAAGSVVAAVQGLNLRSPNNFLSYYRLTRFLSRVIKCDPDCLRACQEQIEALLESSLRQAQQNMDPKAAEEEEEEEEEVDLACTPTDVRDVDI
Chain of CDK7/cyclinH1/MNAT1 (P50613 whole entry): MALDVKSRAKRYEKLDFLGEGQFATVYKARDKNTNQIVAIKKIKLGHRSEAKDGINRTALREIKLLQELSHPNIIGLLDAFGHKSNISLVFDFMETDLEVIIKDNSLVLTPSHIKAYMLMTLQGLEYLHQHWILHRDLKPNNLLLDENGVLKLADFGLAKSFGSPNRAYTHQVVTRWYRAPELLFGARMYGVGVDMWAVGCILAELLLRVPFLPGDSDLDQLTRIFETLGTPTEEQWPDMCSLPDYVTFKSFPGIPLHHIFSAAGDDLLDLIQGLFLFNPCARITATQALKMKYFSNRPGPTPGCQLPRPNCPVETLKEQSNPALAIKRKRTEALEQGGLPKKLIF
Chain of CDK7/cyclinH1/MNAT1 (P51946 whole entry partner): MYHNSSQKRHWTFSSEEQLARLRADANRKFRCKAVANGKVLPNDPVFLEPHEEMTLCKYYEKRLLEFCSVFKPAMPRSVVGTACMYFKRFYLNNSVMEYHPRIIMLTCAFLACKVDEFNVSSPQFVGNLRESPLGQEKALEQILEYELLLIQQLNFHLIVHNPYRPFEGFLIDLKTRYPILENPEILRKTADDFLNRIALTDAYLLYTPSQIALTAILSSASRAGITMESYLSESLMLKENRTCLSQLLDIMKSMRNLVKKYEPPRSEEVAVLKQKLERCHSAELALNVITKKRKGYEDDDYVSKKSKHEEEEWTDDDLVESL
Chain of CDK7/cyclinH1/MNAT1 (P51948 whole entry partner): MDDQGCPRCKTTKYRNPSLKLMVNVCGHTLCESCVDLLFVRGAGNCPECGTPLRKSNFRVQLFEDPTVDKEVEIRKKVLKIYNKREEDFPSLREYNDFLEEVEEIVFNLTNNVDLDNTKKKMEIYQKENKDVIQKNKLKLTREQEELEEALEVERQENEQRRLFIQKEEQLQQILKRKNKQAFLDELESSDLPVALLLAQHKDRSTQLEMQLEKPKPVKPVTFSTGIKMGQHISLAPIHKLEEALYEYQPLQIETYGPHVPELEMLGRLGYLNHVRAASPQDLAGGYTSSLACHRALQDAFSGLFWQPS

Structure (SMILES) | IC50 [1] | IC50 [2] | IC50 [3] | IC50 [4] | IC50 [5]
CC(C)(C)c1cnc(CSc2cnc(NC(=O)Cc3ccc(OCCCC(=O)NO)cc3)s2)o1 [Compound 9, 4-(4-(2-(5-((5-tert-butyloxazol-2-yl)methylthio)thiazol-2-ylamino)-2-oxoethyl)phenoxy)-N-hydroxybutanamide] | < 100 nM | 100 to 1000 nM | < 100 nM | 100 to 1000 nM | < 100 nM
CC(C)(C)c1cnc(CSc2cnc(NC(=O)C3CCN(c4ncc(C(=O)NO)cn4)CC3)s2)o1 [Compound 20, 2-(4-(5-((5-tert-butyloxazol-2-yl)methylthio)thiazol-2-ylcarbamoyl)piperidin-1-yl)-N-hydroxypyrimidine-5-carboxamide] | < 100 nM | < 100 nM | 100 to 1000 nM | 1000 to 10000 nM | < 100 nM
CC(C)(C)c1cnc(CSc2cnc(NC(=O)CCCCCCC(=O)NO)s2)o1 [Compound 8, N^1-(5-((5-tert-butyloxazol-2-yl)methylthio)thiazol-2-yl)-N^8-hydroxyoctanediamide] | < 100 nM | < 100 nM | 100 to 1000 nM | 100 to 1000 nM | < 100 nM

Source: patent publication US8563741B2, “CDK inhibitors containing a zinc binding moiety” (Curis, Inc., priority 2007, dated 2013)
